From the NIST ThermoML archive (doi:10.1021/je060271a)
Values joined by “and” are separate entries in the source; they are usually repeats but may differ in a detail not shown here. Equal entries are not always repeated.

Conditions: 283.15 K, Liquid, Vibrating tube method

CCCCCC(=O)OCC(COC(=O)CCCCC)(COC(=O)CCCCC)COC(=O)CCCCC [pentaerythritol tetrahexanoate]
Conditions	mass density
10919 kPa	1010.4 kg/m3
10934 kPa	1010.4 kg/m3
10949 kPa	1010.4 kg/m3
10966 kPa	1010.5 kg/m3
10983 kPa	1010.4 kg/m3
10998 kPa	1010.5 kg/m3
11013 kPa	1010.5 kg/m3
11028 kPa	1010.6 kg/m3
11046 kPa	1010.5 kg/m3
11060 kPa	1010.6 kg/m3
11075 kPa	1010.4 kg/m3
11093 kPa	1010.5 kg/m3
11108 kPa	1010.6 kg/m3
11126 kPa	1010.6 kg/m3
11141 kPa	1010.5 kg/m3
11157 kPa	1010.6 kg/m3
11173 kPa	1010.6 kg/m3
11191 kPa	1010.5 kg/m3
11206 kPa	1010.6 kg/m3
11221 kPa	1010.5 kg/m3
11237 kPa	1010.6 kg/m3
11256 kPa	1010.5 kg/m3
11271 kPa	1010.6 kg/m3
11289 kPa	1010.8 kg/m3
11304 kPa	1010.6 kg/m3
11320 kPa	1010.7 kg/m3
11339 kPa	1010.7 kg/m3
11355 kPa	1010.7 kg/m3
11370 kPa	1010.6 kg/m3
11387 kPa	1010.7 kg/m3
11406 kPa	1010.7 kg/m3
11422 kPa	1010.7 kg/m3
11438 kPa	1010.7 kg/m3
11457 kPa	1010.8 kg/m3
11473 kPa	1010.8 kg/m3
11492 kPa	1010.7 kg/m3
11508 kPa	1010.8 kg/m3
11524 kPa	1010.8 kg/m3
11541 kPa	1010.7 kg/m3
11560 kPa	1010.8 kg/m3
11577 kPa	1010.7 kg/m3
11593 kPa	1010.8 kg/m3
11613 kPa	1010.9 kg/m3
11630 kPa	1010.7 kg/m3
11649 kPa	1010.9 kg/m3
11682 kPa	1010.8 kg/m3
11753 kPa	1010.9 kg/m3
11773 kPa	1011 kg/m3
11790 kPa	1010.9 kg/m3
11807 kPa	1010.8 kg/m3
11828 kPa	1011 kg/m3
11844 kPa	1010.9 kg/m3
11862 kPa	1010.9 kg/m3
11899 kPa	1011 kg/m3
11916 kPa	1011 kg/m3
11936 kPa	1011.1 kg/m3
11954 kPa	1010.9 kg/m3
11971 kPa	1011 kg/m3
11988 kPa	1011.1 kg/m3
12009 kPa	1011 kg/m3
12027 kPa	1011 kg/m3
12044 kPa	1011 kg/m3
12062 kPa	1011.2 kg/m3
12082 kPa	1011.1 kg/m3
12099 kPa	1011.2 kg/m3
12119 kPa	1011.2 kg/m3
12137 kPa	1011.1 kg/m3
12154 kPa	1011.1 kg/m3
12171 kPa	1011 kg/m3
12192 kPa	1011.2 kg/m3
12209 kPa	1011.1 kg/m3
12231 kPa	1011.3 kg/m3
12249 kPa	1011.2 kg/m3
12267 kPa	1011.2 kg/m3
12290 kPa	1011.1 kg/m3
12309 kPa	1011.2 kg/m3
12310 kPa	1011.2 kg/m3
12311 kPa	1011.2 kg/m3
12312 kPa	1011.2 kg/m3 and 1011.4 kg/m3
12313 kPa	1011.1 kg/m3
12314 kPa	1011.2 kg/m3 and 1011.3 kg/m3
12315 kPa	1011.3 kg/m3
12316 kPa	1011.2 kg/m3
12317 kPa	1011.2 kg/m3
12318 kPa	1011.3 kg/m3 and 1011.2 kg/m3
12319 kPa	1011.4 kg/m3 and 1011.1 kg/m3
12320 kPa	1011.3 kg/m3 and 1011.2 kg/m3
12321 kPa	1011.2 kg/m3
12322 kPa	1011.3 kg/m3 and 1011.2 kg/m3
12323 kPa	1011.3 kg/m3 and 1011.2 kg/m3
12324 kPa	1011.3 kg/m3
12325 kPa	1011.2 kg/m3 and 1011.3 kg/m3
12326 kPa	1011.2 kg/m3 and 1011 kg/m3
12327 kPa	1011.3 kg/m3
12328 kPa	1011.2 kg/m3
12332 kPa	1011.3 kg/m3
12334 kPa	1011.3 kg/m3
12336 kPa	1011.3 kg/m3
12339 kPa	1011.4 kg/m3
12343 kPa	1011.3 kg/m3 and 1011.2 kg/m3
12348 kPa	1011.2 kg/m3
12351 kPa	1011.1 kg/m3
12354 kPa	1011.4 kg/m3
12356 kPa	1011.2 kg/m3
12359 kPa	1011.2 kg/m3
12362 kPa	1011.3 kg/m3
12363 kPa	1011.2 kg/m3
12364 kPa	1011.3 kg/m3
12366 kPa	1011.3 kg/m3
12380 kPa	1011.2 kg/m3
12399 kPa	1011.3 kg/m3
12414 kPa	1011.3 kg/m3
12431 kPa	1011.3 kg/m3
12446 kPa	1011.2 kg/m3
12461 kPa	1011.2 kg/m3
12476 kPa	1011.4 kg/m3
12494 kPa	1011.4 kg/m3
12509 kPa	1011.3 kg/m3
12527 kPa	1011.3 kg/m3
12543 kPa	1011.3 kg/m3
12558 kPa	1011.3 kg/m3
12577 kPa	1011.3 kg/m3
12592 kPa	1011.4 kg/m3
12607 kPa	1011.5 kg/m3
12622 kPa	1011.2 kg/m3
12640 kPa	1011.4 kg/m3
12656 kPa	1011.5 kg/m3
12674 kPa	1011.4 kg/m3
12689 kPa	1011.3 kg/m3
12705 kPa	1011.5 kg/m3
12723 kPa	1011.3 kg/m3
12738 kPa	1011.5 kg/m3
12754 kPa	1011.5 kg/m3
12768 kPa	1011.5 kg/m3
12786 kPa	1011.4 kg/m3
12800 kPa	1011.5 kg/m3
12814 kPa	1011.5 kg/m3
12831 kPa	1011.5 kg/m3
12845 kPa	1011.5 kg/m3
12862 kPa	1011.5 kg/m3
12875 kPa	1011.5 kg/m3
12889 kPa	1011.5 kg/m3
12903 kPa	1011.5 kg/m3
12919 kPa	1011.4 kg/m3
12933 kPa	1011.6 kg/m3
